Experimental data as given in US20090318492A1, “INDOLE COMPOUNDS HAVING C4-ACIDIC SUBSTITUENTS AND USE THEREOF AS PHOSPHOLIPASE-A2 INHIBITORS” (priority 2005, published 2009).

How the values were obtained:
[1] = molecular target: T1, mouse group 1B PLA2 (mps PLA2) (Mus musculus, UniProt Q9Z0Y2); test: Example 8 fluorimetric PLA2 inhibition assay (PPyrPM), mouse enzyme; format: biochemical
T1 construct: made in house; host or cells: E. coli
Excerpt: In this example, a fluorimetric assay procedure was used to evaluate the indole and indole-related compounds of the invention as inhibitors of group 1B phospholipase A2 (PLA2) from human, mouse and porcine. A description of this assay is found in articles: Leslie, C C and Gelb, M H (2004) Methods in Molecular Biology “Assaying phospholipase A2 activity”, 284:229-242; Singer, A G, et al. (2002) Journal of Biological Chemistry “Interfacial kinetic and binding properties of the complete set of human and mouse groups I, II, V, X, and XII secreted phospholipases A2”, 277:48535-48549, which are incorporated herein as references.
In general, this assay used a phosphatidylmethanol substrate with a pyrene fluorophore on the terminal end of the sn-2 fatty acyl chain. Without being bound by theory, close proximity of the pyrenes from neighboring phospholipids in a phospholipid vesicle caused the spectral properties to change relative to that of monomeric pyrene. Bovine serum albumin was present in the aqueous phase and captured the pyrene fatty acid when it is liberated from the glycerol backbone owing to the PLA2-catalyzed reaction. However, a potent inhibitor can inhibit the liberation of pyrene fatty acid from the glycerol backbone. […] The effect of a given inhibitor and inhibitor concentration on human, mouse and porcine phospholipase was determined.
Recombinant human and mouse group 1B PLA2 were cloned and expressed in E. coli as insoluble inclusion bodies. The inclusion bodies were isolated and purified by sonicating cell pellet in lysis buffer (50 mM Tris-HCl pH 7.0, 250 mM NaCl, 0.5% Triton 100), centrifugation at 12,000×g, and washing three times in washing buffer (20 mM Tris-HCl pH 7.0, 250 mM NaCl, 0.5% Triton 100). […]
The following procedure was performed to evaluate the inhibitory potency of the evaluated compounds. • 1. […]

[2] = system: C57BL/6J mouse model of obesity; test: Example 10 mouse diet-induced obesity; format: in vivo; settings: low fat control diet (D12328) with vs without test article
Excerpt: The high-fat diet-fed C57BL/6J mouse model of human diabetes, originally introduced by Surwit and colleagues (Surwit, R S, et al. (1988) “Diet-induced type […] diabetes in C57BL/6J mice”, Diabetes 37: 1163-1167) is a widely accepted, clinically relevant, polygenic model that induces obesity, dyslipidemia, glucose- and insulin-resistance as early as 3 weeks after commencing the high fat diet (Winzell, M S and Ahren, B (2004) “The high-fat diet-fed mouse: a model for studying mechanisms and treatment of impaired glucose tolerance and type 2 diabetes”, Diabetes 53 Suppl 3: S215-219). This model was used to investigate the effects of indole and indole-related Test Articles. Avandia (rosiglitazone) was used as a control Test Article. […]
In these studies and the accompanying figures, Diet D12328 from Research Diets is referred to as the “Low Fat” or Control diet/chow, while Diet D12331 from Research Diets is referred to as the “High Fat” diet. […] The Test Article content was calculated such that ad libitum consumption by the animals would deliver doses (in mg of Test Article per kg animal weight per day) approximating those listed in Table 5.
Animals were maintained on the diets for up to eleven weeks. Body weights were recorded weekly. […] The serum was analyzed for glucose, total cholesterol, triglycerides (TG) and lysophospholipid (LPC) content. […]

[3] = Example 14 toxicology, daily oral gavage for 5 consecutive days; format: in vivo; settings: mice
Excerpt: The purpose of this study was to evaluate the toxicity of indole and indole-related Test Articles when administered daily via oral gavage to mice for 5 consecutive days.
Assessment of toxicity was based on mortality; clinical signs, body weight, food consumption, clinical pathology, and macroscopic pathology data.

T1 sequence (Q9Z0Y2 23-146): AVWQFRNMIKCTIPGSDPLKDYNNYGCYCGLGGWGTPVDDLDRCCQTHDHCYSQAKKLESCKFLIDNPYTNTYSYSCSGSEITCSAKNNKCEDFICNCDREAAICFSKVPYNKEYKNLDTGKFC

With `Cc1c(C(=O)C(N)=O)c2c(OCC(=O)NS(=O)(=O)CCCC(=O)O)cccc2n1Cc1ccccc1` [ILY-IV-40, 4-[2-(3-Aminooxalyl-1-benzyl-2-methyl-1H-indol-4-yloxy)-acetylsulfamoyl]-butyric acid] the IC50 [1] was 1360 nM, the “effect in animals fed a low fat control diet” value [2] was “No or little effect” and the “clinical pathology differences between vehicle control group and treated groups attributable to test article” value [3] was “no differences”.
